Experimental data taken from patent US20060188913A1, “Methods and products for enhancing immune responses using imidazoquinoline compounds” (University of Iowa Research Foundation, priority 2001, published 2006).

Experiments:
hTLR9 = target: T1, hTLR9 (Homo sapiens, UniProt Q9NR96, H530R/Q688R); assay: NF-kappa B luciferase activation in 293T cells transiently transfected with hTLR9; type: cell-based; conditions: hTLR9-transfected 293T cells, positive control for transfection
T1 construct: 293-TLR9-Luc cells contain a genomic copy of the hTLR9 open reading frame and the NF-kappa B-luciferase cassette; expressed in transfected cells; host or cells: 293-TLR9-Luc (stably transfected human embryo kidney 293 cells)
T1 sequence (Q9NR96 26-1032 H530R/Q688R): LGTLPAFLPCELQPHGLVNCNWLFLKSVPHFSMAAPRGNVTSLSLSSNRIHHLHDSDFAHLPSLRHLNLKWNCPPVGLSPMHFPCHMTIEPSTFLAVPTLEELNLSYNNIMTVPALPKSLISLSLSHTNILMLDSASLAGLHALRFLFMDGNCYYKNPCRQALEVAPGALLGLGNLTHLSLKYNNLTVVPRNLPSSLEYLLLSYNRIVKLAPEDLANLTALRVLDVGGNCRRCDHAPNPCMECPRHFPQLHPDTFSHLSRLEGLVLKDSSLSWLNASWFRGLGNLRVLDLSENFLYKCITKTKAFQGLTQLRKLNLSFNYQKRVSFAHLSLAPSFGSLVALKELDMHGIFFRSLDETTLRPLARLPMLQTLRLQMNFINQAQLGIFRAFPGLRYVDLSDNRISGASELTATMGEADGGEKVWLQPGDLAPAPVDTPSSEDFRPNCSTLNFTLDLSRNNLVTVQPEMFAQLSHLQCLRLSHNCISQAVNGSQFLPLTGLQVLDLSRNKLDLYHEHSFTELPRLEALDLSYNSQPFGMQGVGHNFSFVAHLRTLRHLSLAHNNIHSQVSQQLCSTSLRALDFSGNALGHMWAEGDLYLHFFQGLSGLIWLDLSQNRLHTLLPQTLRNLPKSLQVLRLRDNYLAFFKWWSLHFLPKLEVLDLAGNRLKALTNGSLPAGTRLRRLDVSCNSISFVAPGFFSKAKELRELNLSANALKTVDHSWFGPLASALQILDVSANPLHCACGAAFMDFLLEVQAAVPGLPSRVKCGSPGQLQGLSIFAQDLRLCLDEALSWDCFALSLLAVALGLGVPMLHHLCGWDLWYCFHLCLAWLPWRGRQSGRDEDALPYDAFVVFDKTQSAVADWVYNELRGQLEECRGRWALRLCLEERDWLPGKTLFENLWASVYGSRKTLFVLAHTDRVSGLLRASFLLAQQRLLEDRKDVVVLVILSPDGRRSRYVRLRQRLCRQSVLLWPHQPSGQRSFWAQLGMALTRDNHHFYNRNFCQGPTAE
Method: Cells used for transfections were 293T (human embryo kidney cells, T-antigen transfected) or 293-TLR9-Luc (stable transfectants, human embryo kidney cells expressing the human TLR9 receptor and containing a genomic NF-kappa B-luciferase cassette).
Transfections were performed in six-well plates. Cells were plated the day before transfection at 4×10^5/well in DMEM+10% FCS.
Constructs: TLR cDNAs were cloned into pcDNA3.1. NF-kappa B activation was measured by using an 5× NF-kappa B-Luciferase construct (Stratagene). Transfection efficiency was determined by using a beta-galactosidase (beta-gal) reporter construct (p beta-Gal-Control, Clontech).
Stimulation was performed 24 h after transfection. Medium of the cells was reduced to 1 ml (without medium change) and cells were stimulated with indicated amounts of R-848, LPS, ODN 8954, 2006 and IL-1 beta for 16 h.
Cell extracts were prepared by lysing the cells in 100 μl reporter lysis buffer using the freeze-thaw method. NF-kappa B stimulation was measured through luciferase activity (Promega). All data were normalized for beta-gal expression. Stimulation indices were calculated in reference to luciferase activity of medium without addition of ODN.
293T cells, stably transfected with a NF-kappa B-luciferase reporter construct, were transiently transfected with plasmids (pcDNA3.1 constructs) coding for full length hTLR2, hTLR7, hTLR8 and hTLR9. […]

human PBMC = assay: IL-6 secretion by human PBMC (ELISA), with or without chloroquine; type: cell-based; conditions: 10 μg/ml chloroquine, 24 h, IL-6, FIG. 9
Method: Vasilakos J P et al. (2000) Cell Immunol 204:64-74. Human PBMC (n=3) were cultured for 24 h with varying concentrations of R-848 ([…]), varying concentrations of CpG ODN 2006 (0.8-6.0 μg/ml), SEB (50 ng/ml), or media alone. […] IL-6 in the supernatants was measured by ELISA. […] TLR9 is believed to have intracellular expression only.

NF-kappa B activation (hTLR9): 3 fold
Substance: CpG ODN 2006
inhibition of the stimulant's activity by chloroquine (in words) (human PBMC): completely abolish
